Results published in PubChem BioAssay AID1259407 (Chemical Carcinogenesis Research Information System (CCRIS), 2018).
Calls of active or inactive are those of the source. No rule for the calls is given here.

Test system: CCRIS mutagenicity, Ames/micronucleus/aberration tests
Experiment: CCRIS mutagenicity studies
[1] = Test System: AMES SALMONELLA TYPHIMURIUM, Strain/Indicator: TA97, Metabolic Activation: HAMSTER, LIVER, S-9, AROCLOR 1254 (10%), Method: PREINCUBATION
[2] = Test System: AMES SALMONELLA TYPHIMURIUM, Strain/Indicator: TA97, Metabolic Activation: NONE, Method: PREINCUBATION
[3] = Test System: AMES SALMONELLA TYPHIMURIUM, Strain/Indicator: TA97, Metabolic Activation: RAT, LIVER, S-9, AROCLOR 1254 (10%), Method: PREINCUBATION
[4] = Test System: AMES SALMONELLA TYPHIMURIUM, Strain/Indicator: TA98, Metabolic Activation: NONE, Method: PREINCUBATION
[5] = Test System: AMES SALMONELLA TYPHIMURIUM, Strain/Indicator: TA98, Metabolic Activation: RAT, LIVER, S-9, AROCLOR 1254 (10%), Method: PREINCUBATION
[6] = Test System: AMES SALMONELLA TYPHIMURIUM, Strain/Indicator: TA98, Metabolic Activation: RAT, LIVER, S-9, AROCLOR 1254 (30%), Method: PREINCUBATION
[7] = Test System: AMES SALMONELLA TYPHIMURIUM, Strain/Indicator: TA100, Metabolic Activation: NONE, Method: PREINCUBATION
[8] = Test System: AMES SALMONELLA TYPHIMURIUM, Strain/Indicator: TA1535, Metabolic Activation: HAMSTER, LIVER, S-9, AROCLOR 1254 (10%), Method: PREINCUBATION
[9] = Test System: AMES SALMONELLA TYPHIMURIUM, Strain/Indicator: TA1535, Metabolic Activation: NONE, Method: PREINCUBATION
[10] = Test System: AMES SALMONELLA TYPHIMURIUM, Strain/Indicator: TA1535, Metabolic Activation: RAT, LIVER, S-9, AROCLOR 1254 (10%), Method: PREINCUBATION
[11] = Test System: AMES SALMONELLA TYPHIMURIUM, Strain/Indicator: TA100, Metabolic Activation: NONE, Method: STANDARD PLATE

SMILES: O=Cc1c(Cl)cccc1Cl
- mutagenic call [1]: inactive; negative
- mutagenic call (Test System: AMES SALMONELLA TYPHIMURIUM, Strain/Indicator: TA97, Metabolic Activation: HAMSTER, LIVER, S-9, AROCLOR 1254 (30%), Method: PREINCUBATION): inactive; negative
- mutagenic call [2]: inactive; negative
- mutagenic call [3]: inactive; negative
- mutagenic call (Test System: AMES SALMONELLA TYPHIMURIUM, Strain/Indicator: TA97, Metabolic Activation: RAT, LIVER, S-9, AROCLOR 1254 (30%), Method: PREINCUBATION): inactive; negative
- mutagenic call (Test System: AMES SALMONELLA TYPHIMURIUM, Strain/Indicator: TA98, Metabolic Activation: HAMSTER, LIVER, S-9, AROCLOR 1254 (10%), Method: PREINCUBATION): inactive; negative
- mutagenic call (Test System: AMES SALMONELLA TYPHIMURIUM, Strain/Indicator: TA98, Metabolic Activation: HAMSTER, LIVER, S-9, AROCLOR 1254 (30%), Method: PREINCUBATION): inactive; negative
- mutagenic call [4]: inactive; negative
- mutagenic call (Test System: AMES SALMONELLA TYPHIMURIUM, Strain/Indicator: TA98, Metabolic Activation: RAT LIVER S-9 PCB, Method: PREINCUBATION): inactive; negative
- mutagenic call [5]: inactive; negative
- mutagenic call [6]: inactive; negative
- mutagenic call (Test System: AMES SALMONELLA TYPHIMURIUM, Strain/Indicator: TA100, Metabolic Activation: HAMSTER, LIVER, S-9, AROCLOR 1254 (10%), Method: PREINCUBATION): inactive; negative
- mutagenic call (Test System: AMES SALMONELLA TYPHIMURIUM, Strain/Indicator: TA100, Metabolic Activation: HAMSTER, LIVER, S-9, AROCLOR 1254 (30%), Method: PREINCUBATION): inactive; negative
- mutagenic call [7]: inactive; negative
- mutagenic call (Test System: AMES SALMONELLA TYPHIMURIUM, Strain/Indicator: TA100, Metabolic Activation: RAT LIVER S-9, PCB, Method: PREINCUBATION): inactive; negative
- mutagenic call (Test System: AMES SALMONELLA TYPHIMURIUM, Strain/Indicator: TA100, Metabolic Activation: RAT, LIVER, S-9, AROCLOR 1254 (10%), Method: PREINCUBATION): inactive; negative
- mutagenic call (Test System: AMES SALMONELLA TYPHIMURIUM, Strain/Indicator: TA100, Metabolic Activation: RAT, LIVER, S-9, AROCLOR 1254 (30%), Method: PREINCUBATION): inactive; negative
- mutagenic call (Test System: AMES SALMONELLA TYPHIMURIUM, Strain/Indicator: TA104, Metabolic Activation: HAMSTER, LIVER, S-9, AROCLOR 1254 (10%), Method: PREINCUBATION): inactive; negative
- mutagenic call (Test System: AMES SALMONELLA TYPHIMURIUM, Strain/Indicator: TA104, Metabolic Activation: HAMSTER, LIVER, S-9, AROCLOR 1254 (30%), Method: PREINCUBATION): inactive; negative
- mutagenic call (Test System: AMES SALMONELLA TYPHIMURIUM, Strain/Indicator: TA104, Metabolic Activation: NONE, Method: PREINCUBATION): inactive; negative
- mutagenic call (Test System: AMES SALMONELLA TYPHIMURIUM, Strain/Indicator: TA104, Metabolic Activation: RAT LIVER S-9, PCB, Method: PREINCUBATION): inactive; negative
- mutagenic call (Test System: AMES SALMONELLA TYPHIMURIUM, Strain/Indicator: TA104, Metabolic Activation: RAT, LIVER, S-9, AROCLOR 1254 (10%), Method: PREINCUBATION): inactive; negative
- mutagenic call (Test System: AMES SALMONELLA TYPHIMURIUM, Strain/Indicator: TA104, Metabolic Activation: RAT, LIVER, S-9, AROCLOR 1254 (30%), Method: PREINCUBATION): inactive; negative
- mutagenic call [8]: inactive; negative
- mutagenic call (Test System: AMES SALMONELLA TYPHIMURIUM, Strain/Indicator: TA1535, Metabolic Activation: HAMSTER, LIVER, S-9, AROCLOR 1254 (30%), Method: PREINCUBATION): inactive; negative
- mutagenic call [9]: inactive; negative
- mutagenic call [10]: inactive; negative
- mutagenic call (Test System: AMES SALMONELLA TYPHIMURIUM, Strain/Indicator: TA1535, Metabolic Activation: RAT, LIVER, S-9, AROCLOR 1254 (30%), Method: PREINCUBATION): inactive; negative
- mutagenic call (Test System: E.COLI, Strain/Indicator: WP2 UVRA, Metabolic Activation: NONE, Method: PREINCUBATION): inactive; negative
- mutagenic call (Test System: E.COLI, Strain/Indicator: WP2 UVRA, Metabolic Activation: RAT LIVER S-9, PCB, Method: PREINCUBATION): inactive; negative

SMILES: Oc1ccc2cc3c4ccccc4c4ccccc4c3cc2c1O
- mutagenic call (Test System: AMES SALMONELLA TYPHIMURIUM, Strain/Indicator: TA100, Metabolic Activation: RAT, LIVER, S-9, AROCLOR 1254, Method: PREINCUBATION): active; positive

SMILES: O=C(NO)c1ccccc1
- mutagenic call [1]: active; positive
- mutagenic call [2]: active; positive
- mutagenic call [3]: active; positive
- mutagenic call (Test System: AMES SALMONELLA TYPHIMURIUM, Strain/Indicator: TA98, Metabolic Activation: HAMSTER, LIVER, S-9, AROCLOR 1254 (10 OR 30%), Method: PREINCUBATION): active; positive
- mutagenic call [4]: active; positive
- mutagenic call [5]: active; positive
- mutagenic call [6]: active; positive
- mutagenic call (Test System: AMES SALMONELLA TYPHIMURIUM, Strain/Indicator: TA100, Metabolic Activation: HAMSTER, LIVER, S-9, AROCLOR 1254 (10 OR 30%), Method: PREINCUBATION): active; positive
- mutagenic call [7]: active; positive
- mutagenic call (Test System: AMES SALMONELLA TYPHIMURIUM, Strain/Indicator: TA100, Metabolic Activation: RAT, LIVER, S-9, AROCLOR 1254 (10 OR 30%), Method: PREINCUBATION): active; positive
- mutagenic call [8]: active; positive
- mutagenic call [9]: inactive; negative
- mutagenic call [10]: active; positive
- mutagenic call (Test System: AMES SALMONELLA TYPHIMURIUM, Strain/Indicator: TA1537, Metabolic Activation: HAMSTER, LIVER, S-9, AROCLOR 1254 (10%), Method: PREINCUBATION): active; positive
- mutagenic call (Test System: AMES SALMONELLA TYPHIMURIUM, Strain/Indicator: TA1537, Metabolic Activation: NONE, Method: PREINCUBATION): active; positive
- mutagenic call (Test System: AMES SALMONELLA TYPHIMURIUM, Strain/Indicator: TA1537, Metabolic Activation: RAT, LIVER, S-9, AROCLOR 1254 (10%), Method: PREINCUBATION): active; positive

SMILES: Oc1ccc(ON2P(Oc3ccc(O)cc3)N=P(Oc3ccc(O)cc3)(Oc3ccc(O)cc3)N(Oc3ccc(O)cc3)P2Oc2ccc(O)cc2)cc1 (configuration not stated)
- mutagenic call (Test System: AMES SALMONELLA TYPHIMURIUM, Strain/Indicator: TA98, Metabolic Activation: NONE, Method: STANDARD PLATE): inactive; negative
- mutagenic call (Test System: AMES SALMONELLA TYPHIMURIUM, Strain/Indicator: TA98, Metabolic Activation: RAT, LIVER, S-9, AROCLOR 1254, Method: STANDARD PLATE): inactive; negative
- mutagenic call [11]: inactive; negative
- mutagenic call (Test System: AMES SALMONELLA TYPHIMURIUM, Strain/Indicator: TA100, Metabolic Activation: RAT, LIVER, S-9, AROCLOR 1254, Method: STANDARD PLATE): inactive; negative

SMILES: c1ccc2c(OCC3CO3)nsc2c1 (configuration not stated)
- mutagenic call [11]: active; positive
